Data from US12465614B2, “Budesonide 21-phosphate salts and pharmaceutical compositions containing the same” (GENETIC S.P.A., priority 2020, dated 2025).
“Also recorded” adds a separate entry of the source.

What was measured:
Format in all cases: in vivo
[1] = test system: OVA-sensitized mice; experiment: Bronchial relaxation to salbutamol, isolated bronchi of OVA-sensitized mice (Experimental Groups I); details: 1 mg/Kg i.p.; rings precontracted with carbachol; vs OVA group; FIG. 10B
[2] = test system: mice with OVA-induced allergic asthma; experiment: Lung hyperreactivity/Penh function, whole body plethysmography, intra-nasal FB, F, B (Experimental Groups II); details: i.n. daily 2 weeks, all tested doses: FB 0.3, 1.0, 3.0 nmol/animal, vs untreated OVA group
[3] = test system: OVA-sensitized mice; details: mouse, in vivo
[4] = test system: IgE; experiment: Plasma IgE levels in OVA-sensitized mice, ELISA (Experimental Groups I); details: 1 mg/Kg i.p.; vs OVA group; FIG. 10 panel C
Method: Female Balb/c (8-week-old, Charles River, Calco, Italy) were housed in the animal care facility of the Department of Pharmacy of the University of Naples, Italy in a controlled environment (temperature 21±2° C. and humidity 60±10%) and provided with standard rodent chow and water. All animals were allowed to acclimate for four days prior to experiments and were subjected to 12 h light−12 h dark schedule. Experiments were conducted during the light phase. The experimental procedures were approved by the Italian Ministry according to International and National law and policies (EU Directive 2010/63/EU and Italian DL 26/2014 for animal experiments). […] The compounds were dissolved in DMSO (Sigma Chemical Co., St. Louis, MO) at concentrations at which the determined dose per animal results from the intraperitoneal administration of 100 μl of solution (1:10 DMSO) and intra-nasal (i.n.) administration of 10 μl/animal (5 μl/nostril) of the solutions. […] Plasma levels of IgE were measured as index of sensitization. […] Total IgE levels were measured by means of ELISA using matched antibody pairs (BD Biosciences Pharmingen San Jose, CA).

[5] = test system: mice with OVA-induced allergic asthma; experiment: BAL fluid cell counts (Experimental Groups II); details: for total leukocytes in BAL fluid: vs untreated OVA group
Method: (§1) Male Balb/c SPF mice (25*2 g, 6-week-old) were purchased from the animal house facilities at the São Paulo School of Medicine (Federal University of São Paulo, Brazil). They were group-housed in a temperature-controlled room at 22° C. with a 12/12-hour light/dark cycle and allowed free access to food and water. The study is in agreement with the Ethical Principles for Animal Research established by the Brazilian College for Animal Experimentation (COBEA). According to the internal laboratory rules, euthanasia is performed if severe distress related to the test agents developed during the experiment. […] The compounds were dissolved in DMSO (Sigma Chemical Co., St. Louis, MO) at concentrations at which the determined dose per animal results from the intraperitoneal administration of 100 μl of solution (1:10 DMSO) and intra-nasal (i.n.) administration of 10 μl/animal (5 μl/nostril) of the solutions. Mice were sensitized with two subcutaneous injections of 0.4 ml of OVA/Al(OH)3, with an interval of 7 days (Sham animals received the Al(OH)3 suspension in PBS with no OVA). Seven days after the second sensitization (i.e., 3rd week), the animals were nebulized twice a week with the 1% OVA solution (Sham and untreated OVA groups were nebulized with PBS) during 20 minutes for the next 2 weeks. Sixty minutes before the challenges (OVA nebulization) and daily during the next 4 weeks, mice were intra-nasally treated (10 μl/animal as 5 μl/nostril) with the respective compounds/vehicle. After Penh evaluation, the mice were anesthetized with inhaled isofluorane (5% v/v in O2) and blood samples were collected from the descending abdominal aorta. The mice were then euthanized by exsanguination (blood samples were collected from each animal for leukocyte cell counting), and bronchoalveolar lavage (BAL) was performed by exposing and cannulating the trachea with a polyethylene tube (1 mm outer diameter) connected to a syringe. The lungs were washed by flushing 300 μL of heparin-containing PBS solution (20 Ul/mL). The retrieved BAL lavage aliquots were obtained, and the same procedure was repeated four additional times. The samples were submitted to centrifugation (1000 g for 10 min) and the cell pellet was resuspended in 200 μL of PBS solution. Total cell counts were determined using a Neubauer chamber, and differential counting was carried out in cytospin (Fanem Mod 2400; São Paulo, Brazil) preparations stained with May-Grünwald dye. Leukocytes were classified based on normal morphological criteria.

[6] = test system: mice with OVA-induced allergic asthma; experiment: Circulating leukocyte cell counts (Experimental Groups II)
Method: as §1

[7] = i.n., all treatments: FB 0.3, 1.0, 3.0 nmol/animal, F and B 3.0 nmol/animal

Compound | bronchial relaxation to salbutamol [1] | area under the Penh-metacholine concentration curve (AUC) ([2]; B 3.0 nmol/animal) | Penh maximal response Emax to inhaled metacholine ([2]; F and B 3.0 nmol/animal) | bronchial hyperreactivity (increased response of isolated bronchi to carbachol) [3] | OVA induced increase of IgE plasma levels [4] | total leukocytes in BAL fluid ([5]; 0.3 nmol/animal i.n.) | OVA-induced increase of BAL macrophages ([5]; 3 nmol/animal i.n.) | total leukocytes in BAL fluid ([5]; 3 nmol/animal i.n.) | eosinophils in BAL samples [5, 7] | circulating macrophages ([6]; 0.3 nmol/animal i.n.) | total leukocytes in blood samples ([6]; 3 nmol/animal i.n., vs untreated OVA group) | circulating lymphocytes ([6]; 3 nmol/day i.n., vs untreated allergic animals) | circulating eosinophils vs control Sham animals ([6]; highest dose (3 nmol/animal i.n.)) | circulating macrophages ([6]; i.n., FB all tested doses (0.3, 1.0, 3.0 nmol/animal), B and F 3 nmol/animal) | circulating eosinophils [6, 7]
COc1ccc(CC(C)NCC(O)c2ccc(O)c(NC=O)c2)cc1 (stereo not shown) [F, N-[2-hydroxy-5-[1-hydroxy-2-[[2-(p-methoxyphenyl)-2-propy]-amino]-ethyl]-phenyl]-formamide, reference compound] | did not ameliorate the lack of bronchial response to salbutamol |  |  |  |  |  |  |  |  |  |  |  |  |  | 
Budesonide 21-phosphate formoterol salt [FB] | significantly increased bronchial relaxation | significantly reduced Penh at all the MCh doses tested; also recorded: abolished | Significant reduction of the maximal response Emax; also recorded: abolished | Significant reduction of the bronchial hyperreactivity | significantly reduced OVA induced increase of IgE plasma levels | significantly reduced | abolished the OVA-induced increase of BAL macrophages | significantly reduced | significantly controlled | potent lowering effect | significantly reduced; also recorded: almost abolished | lower number of circulating cells than the untreated allergic animals | even lower than in the control Sham animals | significantly reduced the number of macrophages; also recorded: reduced the number of these cells to values lower than those observed in the control animals | decreased by FB treatment at all the tested doses
